Test results published in patent publication US7229621B2, “Method to enhance the immunogenicity of an antigen” (Torrey Pines Institute for Molecular Studies, priority 1998, dated 2007).

Columns and labels:
[1] = test system: Langerhans cells (immature dendritic cells); test: FITC screening assay: Langerhans/dendritic cell migration to draining inguinal lymph node after topical FITC in acetone plus migration inducer; assay type: in vivo, C57BL/6 mice; details: for Amt. Antigen/DC (mean fluorescence intensity of the dendritic cells) / Total DC (FITC+ plus FITC- dendritic cells per lymph node) / Antigen^+ DC (FITC+ MHC class II^Hi cells per lymph node): FITC 5 mg/ml in 50:50 acetone and test agent; for Amt. Antigen/DC (mean fluorescence intensity of the dendritic cells) / Total DC (FITC+ plus FITC- dendritic cells per lymph node): 48 hrs later; for Antigen^+ DC (FITC+ MHC class II^Hi cells per lymph node): inguinal lymph nodes 48 hrs later; for effect on FITC+ and total dendritic cell migration into the lymph node: topical FITC in acetone plus agent on shaved abdominal skin, 2 days after treatment (FIG. 1)
Excerpt: Fluorescein isothiocyanate (FITC) has been used extensively by the inventor and others, to characterize Langerhans cell migration. FITC is a small (389 Da) non-peptide, largely lipophilic molecule, capable of crossing the stratum corneum. The antigenicity of FITC is due to the reactivity of its isothiocyanate group (—N═C═S) with free amino groups, permitting it to be covalently bound to proteins and/or peptides. C57BL/6 mice received the following treatments: 1) none; 2) shaving of the abdominal skin only; or shaving of the abdominal skin followed by either 3) topical administration of FITC in acetone; 4) topical administration of FITC in acetone and olive oil; 5) topical administration of FITC in acetone and DMSO diluted in phosphate buffered saline (PBS); or 6) topical administration of FITC in acetone and dibutyl phthalate. The draining inguinal lymph nodes were then examined for immigrant dendritic cells by immunofluorescent flow cytometry each day thereafter. Migratory Langerhans cells were identified by the presence of FITC and co-expression of high MHC class II molecules or by co-expression of the DEC 205 ligand for the monoclonal antibody, NLDC-145. Dendritic cell residents of the lymph nodes could be differentiated by their high expression of MHC class II molecules but lack of FITC, or by their lack of FITC but co-expression of the ligand for the dendritic cell-specific monoclonal antibody, 33D1. The uptake of FITC and the Langerhans cell response to migratory signals were observable in the draining lymph node as early as six hours after topical administration. However, 48–72 hours was required for maximal immigration of FITC-bearing Langerhans cells into the lymph node. FIG. 1 illustrates the effect of various treatment regimens on the total and FITC+ dendritic cells 2 days after treatment. […] Thus, dibutyl phthalate was a very potent migration inducer.
Compounds which are useful as inducers of immature dendritic cell migration may be screened using the standard FITC methods described for the data presented in FIGS. 1—3. C57BL6 mice are shaved on their abdomens and painted with 100–200 μl of the test solution, containing 5 mg/ml FITC in a 50/50 (v/v) mixture of acetone and the migration inducer (e.g. dibutyl phthalate). After 2 days, the draining inguinal lymph nodes are removed and the total number of dendritic cells (both FITC+ and FITC−) is determined by flow cytometry and MHC class II immunofluorescence or other markers specific for dendritic cells.
The antigen employed was FITC and the procedure was identical to that used for the experiments depicted in FIG. 1. Namely, FITC at 5 mg/ml was dissolved in a 50:50 solution of acetone and the test agents for migration induction. The test agents used in this experiment were: dibutylfumarate (Agent #1); diisooctylmaleate (Agent #2); and dibutyl-D-tartarate (Agent #3). The inguinal lymph nodes were examined 48 hrs later for the presence of FITC+ and FITC-dendritic cells as detailed previously.
The antigen used was FITC, which was applied topically to the shaved abdominal skin of C57BL/6 mice at 5 mg/ml in a 50:50 solution of dibutyl phthalate and acetone. Each of the applications was identical, with half of the mice in each group receiving the first application only (none) and half receiving the first application followed by a second application at the specified interval (14 days or 21 days) after the first application. The inguinal lymph node cells were examined by flow cytometry for FITC+ dendritic cells, as detailed previously, 48 hrs after each treatment.

[2] = test system: dendritic cells in draining lymph node; test: Antigen-bearing dendritic cells in lymph nodes after injection of soluble protein or peptide with or without topical migration inducer; assay type: in vivo, mice
Protocol: The injections were followed 2 hours later by topical application of dibutyl phthalate and acetone to the abdominal skin. The antigen-bearing dendritic cells that had migrated to the draining lymph node two days later were analyzed as described above and are shown in the upper right quadrant of each dot plot.
This was followed 2 hrs later by: A) no further treatment, or B) topical application of dibutyl phthalate and acetone to the abdominal skin. The antigen-bearing dendritic cells that had migrated to the draining lymph node two days later are shown in the upper right quadrant of each dot plot.
As stated previously, whether mature antigen-bearing dendritic cells will be encountered by and activate naive T cells in the lymph node is likely to depend not only on the number of antigen-bearing dendritic cells that enter the node, but also on the density of MHC:peptide complexes expressed on their membranes.

[3] = test system: dendritic cells in draining lymph node; test: Antigen-bearing dendritic cells in lymph node after aqueous antigen applied to skin with DBP and acetone; assay type: in vivo; details: aqueous solution applied to the skin with topical DBP and acetone (data not shown)
Excerpt: Similarly, when an aqueous solution of a […] peptide or OVA protein antigen was applied to the skin along with topical application of the migration inducer, DBP and acetone, no detectable antigen-bearing (i.e., K^b:[…] positive) dendritic cells appeared in the draining lymph node (data not shown).

E.G7-OVA tumor cells = test: E.G7-OVA tumor growth after immunization with tumor antigen and migration inducer; assay type: in vivo, C57BL/6 mice; details: 50 μl of 1.25 mM OVA in HBSS injected, DBP in acetone topically an hour later; tumor inoculation one month later (FIG. 12)
Excerpt: The tumor cell, E.G7-OVA, is the C57BL/6 EL4 thymoma transfected with the complete gene for chicken ovalbumin (OVA). The transfected cell line expresses OVA protein, which is also processed naturally by E.G7-OVA cells into an eight amino acid peptide, OVA257-264, with the sequence […]. […] Based on the positive results using FITC, the inventors followed a similar protocol in an attempt to induce immunity to the E.G7-OVA tumor by topical administration of the well-characterized, synthetic […] tumor-associated peptide.
C57BL/6 mice were treated as follows: 1) shaving alone; 2) topical administration of acetone and dibutyl phthalate; 3) topical administration of […] (240 μg/ml) in DMSO diluted in PBS, followed in 5 hours by acetone and dibutyl phthalate; and 4) topical administration of […] (240 μg/ml) in acetone and dibutyl phthalate. All mice were subsequently injected subcutaneously with 5×10^5 E.G7-OVA cells (5-times the minimal tumorogenic dose). Tumor-specific immunity was monitored by measuring the size of the developing tumor.
The mucous membranes lack the tough barrier posed by the stratum corneum of the skin. […] The EL4 parent tumor cell line, lacking chicken ovalbumin, was used as a negative control; no immunity against the EL4 tumor cells was seen. Thus, the inventors' hypothesis regarding penetration of the stratum corneum was confirmed; the […] peptide was not effectively reaching the immature dendritic cells, known as Langerhans cells, underlying the stratum corneum.
To enhance the effectiveness of cutaneous topical administration of peptide, […] was dissolved in DMSO and applied to the skin without further dilution. Dibutyl phthalate in a 50:50 mixture with acetone was applied to the same site 5 hr later. All mice were subsequently injected subcutaneously with 5×10^5 E.G7-OVA cells. The results shown in FIG. 6 indicate that the peptide in concentrated DMSO was apparently able to traverse the stratum corneum, effectively gaining access to the epidermal Langerhans cells. […] Thus, the tumor-specific peptide, […], in concentrated DMSO, penetrated the stratum corneum in sufficient concentration to be incorporated into the MHC class I molecule K^b on epidermal Langerhans cells, and in the presence of the migration inducer, dibutyl phthalate, was effectively presented to CD8+ CTLs in the draining lymph nodes.
To confirm the immunogenicity of the disclosed treatment, groups of 10 C57BL/6 mice were injected with 50 μl of 1.25 mM OVA protein in HBSS, with HBSS alone, or with nothing. This was followed an hour later by topical application of DBP in acetone or with nothing. One month later, the mice were inoculated subcutaneously with 5×10^5 EL4 tumor cells or with 5×10^5 E.G7-OVA tumor cells and subsequent tumor growth was measured.

[4] = 1st treatment day 1, 2nd none, assay day 16
[5] = 1st treatment day 1, 2nd none, assay day 23
[6] = 1st treatment day 1, 2nd treatment day 14, assay day 16
[7] = 1st treatment day 1, 2nd treatment day 21, assay day 23
[8] = FITC 5 mg/ml in 50:50 dibutyl phthalate and acetone, 1st treatment day 1, 2nd none, assay day 2
[9] = 20 μl of 0.5 mM in HBSS injected, dibutyl phthalate and acetone 2 hours later, two days later

CCCCOC(=O)[C@@H](O)[C@H](O)C(=O)OCCCC [DBT, dibutyl-D-tartarate]
Amt. Antigen/DC (mean fluorescence intensity of the dendritic cells) [1]: 364 arbitrary units | Total DC (FITC+ plus FITC- dendritic cells per lymph node) [1]: 29,050 cells per lymph node | Antigen^+ DC (FITC+ MHC class II^Hi cells per lymph node) [1]: 14,175 cells per lymph node

C[S+](C)[O-] [DMSO, dimethylsulfoxide]
effect on FITC+ and total dendritic cell migration into the lymph node [1]: no enhancement

CCCCOC(=O)/C=C/C(=O)OCCCC [Test Agent #1, dibutylfumarate]
Amt. Antigen/DC (mean fluorescence intensity of the dendritic cells) [1]: 994 arbitrary units | Total DC (FITC+ plus FITC- dendritic cells per lymph node) [1]: 10,088 cells per lymph node | Antigen^+ DC (FITC+ MHC class II^Hi cells per lymph node) [1]: 4,242 cells per lymph node

CC(C)CCCCCOC(=O)/C=C\C(=O)OCCCCCC(C)C [Test Agent #2, diisooctylmaleate]
Amt. Antigen/DC (mean fluorescence intensity of the dendritic cells) [1]: 1032 arbitrary units | Total DC (FITC+ plus FITC- dendritic cells per lymph node) [1]: 7,927 cells per lymph node | Antigen^+ DC (FITC+ MHC class II^Hi cells per lymph node) [1]: 5,340 cells per lymph node

CCCCOC(=O)c1ccccc1C(=O)OCCCC [dibutyl phthalate]
Antigen-bearing Dendritic Cells/Node [1, 4]: 1,776 | Cells per Lymph Node [1, 4]: 4.52 × 10^6 | Antigen-bearing Dendritic Cells/Node [1, 5]: 0 | Cells per Lymph Node [1, 5]: 3.87 × 10^6 | Antigen-bearing Dendritic Cells/Node [1, 6]: 99,840 | Cells per Lymph Node [1, 6]: 1.28 × 10^7 | Antigen-bearing Dendritic Cells/Node [1, 7]: 49,203 | Cells per Lymph Node [1, 7]: 6.93 × 10^6 | Antigen-bearing Dendritic Cells/Node [1, 8]: 64,220 | Cells per Lymph Node [1, 8]: 6.76 × 10^6 | FITC+ Langerhans cells present in the lymph node ([1]; by 12 hours after FITC in acetone and dibutyl phthalate (FIG. 2)): High numbers | increase of lymph node cell population over baseline levels ([1]; five days after topical FITC in acetone and dibutyl phthalate (FIG. 3)): approximately 7.2 fold | effect on FITC+ and total dendritic cell migration into the lymph node [1]: striking effect

B1: OVA: Chicken ovalbumin, a 40 kDa protein used as prototypic experimental antigen (protein, UniProt P01012 2-386, looked up)
Ovalbumin: GSIGAASMEFCFDVFKELKVHHANENIFYCPIAIMSALAMVYLGAKDSTRTQINKVVRFDKLPGFGDSIEAQCGTSVNVHSSLRDILNQITKPNDVYSFSLASRLYAEERYPILPEYLQCVKELYRGGLEPINFQTAADQARELINSWVESQTNGIIRNVLQPSSVDSQTAMVLVNAIVFKGLWEKAFKDEDTQAMPFRVTEQESKPVQMMYQIGLFRVASMASEKMKILELPFASGTMSMLVLLPDEVSGLEQLESIINFEKLTEWTSSNVMEERKIKVYLPRMKMEEKYNLTSVLMAMGITDVFSSSANLSGISSAESLKISQAVHAAHAEINEAGREVVGSAEAGVDAASVSEEFRADHPFLFCIKHIATNAVLFFGRCVSP
Total Cells per Lymph Node ([2]; 20 μl of 0.5 mM in HBSS injected at two sites in abdominal skin, dibutyl phthalate and acetone topically 2 hours later, two days later): 8.8 × 10^6 | Dendritic Cells per Lymph Node [2, 9]: 137,456 | K^b:SIINFEKL^+ DC per LymphNode [2, 9]: 61,424 | Enhancement ([2]; K^b:SIINFEKL+ DC versus HBSS injection): 31× | increase in the number of antigen-bearing dendritic cells in the draining lymph nodes ([2]; injection followed by topical induction of migration, two days later): 31 fold | antigen-bearing (K^b:SIINFEKL positive) dendritic cells in the draining lymph node [3]: no detectable | tumor protection against E.G7-OVA (E.G7-OVA tumor cells): tumor protection
